Results as given in patent US20250214977A1, “STAT6 INHIBITORS AND USES THEREOF” (Kymera Therapeutics, Inc., priority 2024, published 2025).

test system: Phosphorylation of STAT6 in human A549 cells; test: Phosphorylated STAT6 (pSTAT6) flow cytometry assay in human A549 cells; type: cell-based; settings: read-out: STAT6 IL4 pSTAT6 assay in A549 cells: Average IC50
From the text: Example 3. Phosphorylated STAT6 (pSTAT6) Flow Cytometry Assay in Human A549 Cells
Phosphorylation of STAT6 in human A549 cells was quantitatively measured using flow cytometry technology.

IC50 | Molecule
< 100 nM | COc1ccccc1-c1cc(C2=CCCN(C(=O)CCn3ccnn3)C2)c(F)c2[nH]c(C(=O)N3CCN(c4ccc(=O)[nH]c4C)CC3)cc12 [Example I-1022]
< 100 nM | COc1ccccc1-c1cc(C2=CCCN(C(=O)CCn3ccnn3)C2)c(F)c2[nH]c(C(=O)N3Cc4cnn(C)c4C3)cc12 [Example I-464]
< 100 nM | COc1cc(F)cnc1N1CCN(C(=O)c2cc3c(-c4ccnc(N5CCN(C)CC5)c4)cc(C4=CCCN(C(=O)CCn5ccnn5)C4)c(F)c3[nH]2)CC1 [Example I-617]
< 100 nM | COc1cc(F)cnc1N1CCN(C(=O)c2cc3c(C4=CCN(c5ccccn5)CC4)cc(C4=CCCN(C(=O)CCn5ccnn5)C4)c(F)c3[nH]2)CC1 [Example I-1117]
< 100 nM | COc1ccccc1-c1cc(C2=CCCN(C(=O)CCn3ccnn3)C2)c(F)c2[nH]c(C(=O)N3CCN(c4cn5ccnc5cc4C)CC3)cc12 [Example I-915]
100 to 1000 nM | COc1ccccc1-c1cc(C2=CCCN(C(C)=O)C2)c(F)c2cc(C(=O)N(C)C)oc12 [Example I-1104]
< 100 nM | COc1ccccc1-c1cc(C2=CCCN(C(=O)CCn3ccnn3)C2)c(F)c2[nH]c(C(=O)N3CCN(c4nccc(C)c4OC)CC3)cc12 [Example I-415]
< 100 nM | COc1ccccc1-c1cc(C2=CCCN(C(=O)CCn3ccnn3)C2)c(F)c2[nH]c(C(=O)N3CCN(CC(=O)NC(C)C)CC3)cc12 [Example I-1200]
< 100 nM | (R)-1-(3-(7-fluoro-2-(4-(5-fluoro-3-methoxypyridin-2-yl)piperazine-1-carbonyl)-4-(1-methylpyrrolidin-3-yl)-1H-indol-6-yl)-5,6-dihydropyridin-1(2H)-yl)-3-(1H-1,2,3-triazol-1-yl)propan-1-one [Example I-812]
< 100 nM | CCOCc1cc(-c2cc(C3=CCCN(C(=O)CCn4ccnn4)C3)c(F)c3[nH]c(C(=O)N4CCN(c5ncc(F)cc5OC)CC4)cc23)ccc1F [Example I-1128]
> 100000 nM | CCc1ccncc1-c1cc(C2=CCC[C@@H](C(=O)O)C2)c(F)c2[nH]c(C(=O)N3CCN(c4ncc(F)cc4OC)CC3)cc12 (single isomer, unassigned) [Example I-810]
< 100 nM | COc1ccccc1-c1cc(C2=CCCN(C(=O)CCn3ccnn3)C2)c(F)c2[nH]c(C(=O)N3CCN(Cc4noc(C)n4)CC3)cc12 [Example I-1201]
< 100 nM | COc1cc(F)cnc1N1CCN(C(=O)c2cc3c(-c4ccccc4C4CC4)cc(C4=CCCN(C(=O)CCn5ccnn5)C4)c(F)c3[nH]2)CC1 [Example I-645]
< 100 nM | COc1cc(F)cnc1N1CCN(C(=O)c2cc3c(-c4ccc(N5C[C@@H](C)O[C@@H](C)C5)nc4)cc(C4=CCCN(C(=O)CCn5ccnn5)C4)c(F)c3[nH]2)CC1 [Example I-1138]
100 to 1000 nM | CN(C)C(=O)c1cc2cc([C@H]3CCCN(C(=O)CCn4ccnn4)C3)ccc2o1 [Example I-830]
< 100 nM | CCc1ccncc1-c1cc(C2=CCCN(C(=O)CCn3ccnn3)C2)c(F)c2[nH]c(C(=O)N3CCN(c4cccc(OC)n4)CC3)cc12 [Example I-480]
< 100 nM | COc1ccccc1-c1cc(C2=CCCN(C(=O)CCn3ccnn3)C2)c(F)c2[nH]c(C(=O)N3CCN(c4nccc5cnccc45)CC3)cc12 [Example I-362]
< 100 nM | COc1ccccc1-c1cc(C2=CCCN(C(=O)CCn3ccnn3)C2)c(F)c2[nH]c(C(=O)N3CCc4ccc(N)cc4C3)cc12 [Example I-1012]
< 100 nM | COc1cc(F)cnc1N1CCN(C(=O)c2cc3c(-c4cccc5c4CC[C@H]5O)cc(C4=CCCN(C(=O)CCn5ccnn5)C4)c(F)c3[nH]2)CC1 [Example I-658]
< 100 nM | COc1cc(F)cnc1N1CCN(C(=O)c2cc3c(-c4ccc5c(c4)OCCCO5)cc(C4=CCCN(C(=O)CCn5ccnn5)C4)c(F)c3[nH]2)CC1 [Example I-1148]
< 100 nM | CNc1cccnc1N1CCN(C(=O)c2cc3c(-c4ccccc4OC)cc(C4=CCCN(C(=O)CCn5ccnn5)C4)c(F)c3[nH]2)CC1 [Example I-439]
< 100 nM | COc1cc(N(C)C)ccc1-c1cc(C2=CCCN(C(=O)CCn3ccnn3)C2)c(F)c2[nH]c(C(=O)N3CCN(c4ncc(Cl)cc4OC)CC3)cc12 [Example I-1039]
100 to 1000 nM | CN(C)C(=O)c1cc2cc(C3=CCCN(C(=O)C4Cc5c(N)cccc5CN4C=O)C3)ccc2o1 (stereo not shown) [Example I-372]
< 100 nM | CN(C)C(=O)c1cc2cc(C3=CCCN(C(=O)CCn4ccnn4)C3)cc(CN3CC(N)C3)c2o1 [Example I-1180]
< 100 nM | COc1cccc(N2CCN(C(=O)c3cc4c(-c5cc(F)cc(F)c5OC)cc(C5=CCCN(C(=O)CCn6ccnn6)C5)c(F)c4[nH]3)CC2)n1 [Example I-591]
< 100 nM | COc1ccccc1-c1cc(C2=CCCN(C(=O)CCn3ccnn3)C2)c(F)c2[nH]c(C(=O)N3CCN(c4c(C)ccn5nccc45)CC3)cc12 [Example I-1019]
< 100 nM | CCc1nc(C)ccc1-c1cc(C(=O)N2CCN(c3ncc(F)cc3OC)CC2)cc2cc(C3=CCCN(C(=O)CC(=O)O)C3)n(CC)c12 [Example I-794]

IC50 | Molecule
< 100 nM | COc1ccccc1-c1cc(C2CN(C(=O)CCn3ccnn3)CC(F)(F)C2)c(F)c2[nH]c(C(=O)N3Cc4cnn(C)c4C3)cc12 (stereo not shown) [Example I-512]
< 100 nM | COc1ccccc1-c1cc(C2=CCCN(C(=O)CCn3ccnn3)C2)c(F)c2[nH]c(C(=O)N3CCN(c4ccsc4C#N)CC3)cc12 [Example I-776]
< 100 nM | CN(C)C(=O)c1cc2cc(C3=CCCN(C(=O)CCn4ccnn4)C3)cc(-c3ccc4[nH]ncc4c3)c2o1 [Example I-1080]
< 100 nM | Cc1c[nH]c2ncc(-c3cc(C4=CCCN(C(=O)CCn5ccnn5)C4)cc4cc(C(=O)N(C)C)oc34)cc12 [Example I-1085]
< 100 nM | COc1cc(F)cnc1N1CCN(C(=O)c2cc3c(C4=CCOC4)cc(C4=CCCN(C(=O)CCn5ccnn5)C4)c(F)c3[nH]2)CC1 [Example I-639]
< 100 nM | COc1ccccc1-c1cc(C2=CCCN(C(=O)CCn3ccnn3)C2)c(F)c2[nH]c(C(=O)N3CCN(c4scnc4C)CC3)cc12 [Example I-777]
< 100 nM | CCc1cccnc1N1CCN(C(=O)c2cc3c(-c4ccccc4OC)cc(C4=CCCN(C(=O)CCn5ccnn5)C4)c(F)c3[nH]2)CC1 [Example I-327]
< 100 nM | COc1cccnc1N1CCN(C(=O)c2cc3c(-n4nc(C)cc4C)cc(C4=CCCN(C(=O)CCn5ccnn5)C4)c(F)c3[nH]2)CC1 [Example I-586]
< 100 nM | COc1cc(F)cnc1N1CCN(C(=O)c2cc3c(-c4cncc(-c5ccccc5)c4)cc(C4=CCCN(C(=O)CCn5ccnn5)C4)c(F)c3[nH]2)CC1 [Example I-647]
< 100 nM | COc1cccc(N2CCN(C(=O)c3cc4c(-c5ccc(F)cc5OC)cc(C5=CCCN(C(=O)CCn6ccnn6)C5)c(F)c4[nH]3)CC2)n1 [Example I-589]
< 100 nM | CCc1nc(C)ccc1-c1cc(C(=O)N2CCN(c3nc(C)c(F)cc3OC)CC2)cc2cc(C3=CCCN(C(=O)CC(=O)O)C3)n(CC3CC3)c12 [Example I-792]
< 100 nM | CNc1ccc(-c2cc(C3=CCCN(C(=O)CCn4ccnn4)C3)cc3[nH]c(C(=O)N(C)C)cc23)c(Cl)c1 [Example I-1050]
< 100 nM | COc1cc(F)cnc1N1CCN(C(=O)c2cc3c(-c4cc(C)nc5ccccc45)cc(C4=CCCN(C(=O)CCn5ccnn5)C4)c(F)c3[nH]2)CC1 [Example I-630]
< 100 nM | COc1cccnc1N1CCN(C(=O)c2cc3c(N4CCN(C)CC4)cc(C4=CCCN(C(=O)CCn5ccnn5)C4)c(F)c3[nH]2)CC1 [Example I-557]
< 100 nM | COc1cc(N(C)C)ccc1-c1cc(C2=CCCN(C(=O)CCn3ccnn3)C2)c(F)c2[nH]c(C(=O)N3CCN(c4ccccc4OC)CC3)cc12 [Example I-610]
< 100 nM | CCc1nc(C)ccc1-c1cc(C(=O)N2CCN(c3ncc(F)cc3OC)CC2)cc2cc(C3=CCCN(C(=O)CCC(=O)O)C3)n(CC3CC3)c12 [Example I-527]
1000 to 10000 nM | CCC1CCCCC1c1cc(C2=CCCN(C(=O)CCn3ccnn3)C2)c(F)c2[nH]c(C(=O)N3CCN(c4ncc(F)cc4OC)CC3)cc12 (single isomer, unassigned) [Example I-1174]
< 100 nM | COc1ccccc1-c1cc(C2=CCCN(C(=O)CCn3ccnn3)C2)c(F)c2[nH]c(C(=O)N3Cc4c(C)nn(C)c4C3)cc12 [Example I-509]
< 100 nM | CN(C)C(=O)c1cc2cc(C3=CCCN(C(=O)CCn4ccnn4)C3)cc(-c3cc(C(F)(F)F)nn3C)c2o1 [Example I-855]
< 100 nM | CN(C)C(=O)c1cc2cc(C3=CCCN(C(=O)CCn4ccnn4)C3)cc(CN3CCNCC3)c2o1 [Example I-1179]
< 100 nM | CCOc1ccncc1-c1cc(C2=CCCN(C(=O)CCn3ccnn3)C2)c(F)c2[nH]c(C(=O)N3CCN(c4ccnnc4OC)CC3)cc12 [Example I-483]
< 100 nM | CCc1cc(C(F)F)ncc1-c1cc(C2=CCCN(C(=O)CCn3ccnn3)C2)c(F)c2[nH]c(C(=O)N3CCN(c4nc(C)c(F)cc4OC)CC3)cc12 [Example I-763]
< 100 nM | COc1cc(F)cnc1N1CCN(C(=O)c2cc3c(-c4ccc5c(C)nn(C)c5c4)cc(C4=CCCN(C(=O)CCn5ccnn5)C4)c(F)c3[nH]2)CC1 [Example I-623]
< 100 nM | COc1ccncc1-c1cc(C2=CCCN(C(=O)CCn3ccnn3)C2)c(F)c2[nH]c(C(=O)N3CCN(c4ccc(Cl)cc4OC)CC3)cc12 [Example I-450]
< 100 nM | CCC1=C(c2cc(C3=CCCN(C(=O)CCn4ccnn4)C3)c(F)c3[nH]c(C(=O)N4CCN(c5ncc(F)cc5OC)CC4)cc23)CN(C)CC1 [Example I-730]
100 to 1000 nM | CCC1CCCC=C1c1cc(C2=CCCN(C(=O)CCn3ccnn3)C2)c(F)c2[nH]c(C(=O)N3CCN(c4ncccc4OC)CC3)cc12 (stereo not shown) [Example I-1168]
> 100000 nM | CCc1nc(C)ccc1-c1cc(C(=O)N2CCN(c3ncc(F)cc3OC)CC2)cc2cc(C3=CCCN(C(=O)CC(=O)O)C3)n(CC(C)C)c12 [Example I-800]

Molecule | IC50
COc1ccccc1-c1cc(C2=CCCN(C(=O)CCn3ccnn3)C2)c(F)c2[nH]c(C(=O)N3CCC4(CC3)OCCO4)cc12 [Example I-1000] | < 100 nM
